Read-outs that look alike come from different tables or passages of the source.
How the values were obtained:
pH of aqueous solution = format: physicochemical; settings: 1% aqueous solution (Ib)
arachidonic acid oedema = arachidonic acid oedema in the rat, oral administration; format: in vivo; settings: for change of Increase of Original Volume (in parentheses), 60 min: vs controls
Method: (1) Arachidonic acid oedema in the rat (M. J. Di Martino, G. C. Campbell Jnr., C. E. Wolff and N. Hanna, Agents and Actions; 21, 303, 1987)
Compound Ib was administered by gastric probe one hour before subplantar injection of 0.1 ml of 0.5% arachidonic acid in carbonate buffer (pH 8-8.2).
The volume of the paws of the treated animals and of the control was measured with a plethysmometer immediately and 60 minutes after the irritating agent (peak time of oedema).

carrageenin oedema = carrageenin oedema test in the rat, oral administration; format: in vivo; settings: rat, oral; for % change of increase of original volume, 1 h / % change of increase of original volume, 2 h / % change of increase of original volume, 3 h / % change of increase of original volume, 4 h / % change of increase of original volume, 5 h: vs controls
Method: (§1) The anti-inflammatory and analgesic activity of compound Ib was tested after oral administration in the carrageenin oedema test in the rat (C. A. Winter et al. Proc. Soc. Exp. Biol. Med., 111, 544, 1962), in the phenylquinone writhing test (I. C. Hendershot and J. J. Forsaith, Pharmacol. Exp. Ther., 125, 237, 1959) and in the hot plate test on the mouse (N. B. Eddy and D. J. Leimbach, J. Pharmacol. Exp. Ther., 107, 385, 1953). The activity of the compound was compared with equimolecular doses of sodium meclofenamate. A comparison was also made between the acute toxicity of the two substances by measuring the oral LD 50 on the rat.
The substances under test, dissolved in distilled water, were administered by a stomach probe 1 hour before subplantar injection of carrageenin (1% in sterile 0.9% NaCl aqueous solution). […]

[1] = acute toxicity on the rat, oral LD50; format: in vivo; settings: rat, in vivo, po
Method: as §1
(§2) The two LD 50 values were calculated by the probit method.

rat = test: acute toxicity on the rat, oral LD50; format: in vivo; settings: oral LD50, probit method
Method: as §1, §2

[2] = test system: writhing induced by phenylquinone; test: phenylquinone writhing test, oral administration; format: in vivo, mouse; settings: oral
Method: as §1
The substances under test were administered by a stomach probe 1 hour before intraperitoneal injection of phenylquinone (2 mg/kg). The abdominal contractions of the treated animals and the controls were counted during every 10 minutes for half an hour.

[3] = test system: reaction time to heat (hot plate); format: in vivo, mouse; settings: oral; for Percentages of mice protected at 30 minutes / Percentages of mice protected at 60 minutes: reaction time 15 seconds or more, 55° C.
Method: as §1
The substances under test were administered by a stomach probe to preselected mice. The controls and the treated animals were placed on the hot plate (55° C.) one at a time immediately after treatment. The reaction time to heat, was measured 30 and 60 minutes after treatment. Animals were considered protected when the reaction time was 15 seconds or more.

[4] = test system: 6-day old air pouch irritated by carrageenan; test: irritation of 6-day old air pouch by carrageenan in the rat; format: in vivo; settings: os
Method: (2) Irritation of 6-day old air pouch by carrageenan in the rat (A. D. Sedgwick, Y. M. Sin, A. R. Mackay, A. Al-Duaij and D. A. Willoughby; J. Pharm. Pharmacol.; 36, 171, 1984).
The formation of a dorsal pouch was induced in the rat by dorsal subcutaneous administration of 20 ml of air. 10 ml of air were then injected every day for three consecutive days in order to keep the cavity permeable. Six days after the first injection of air, the dorsal pouch in the animals was treated with 1 ml of 1% carrageenan in physiological solution.
Compound Ib was administered by gastric probe, 24 hours and 1 hour before administration of the irritating agent.
The animals, dividedinto groups of five, were killed 4 hours and 24 hours after the carrageenan. The volume of the exudate and the total number of leucocytes were measured.

[5] = Ib 12.7 mg/kg, sodium meclofenamate 11 mg/kg
[6] = dose corresponding to 10 mg/kg meclofenamic acid (Ib 12.7 mg/kg; sodium meclofenamate 11.0 mg/kg)
[7] = dose corresponding to 10 mg/kg meclofenamic acid
[8] = dose corresponding to 20 mg/kg meclofenamic acid (Ib 25,4 mg/kg; sodium meclofenamate 22,0 mg/kg), **P < 0.01 vs controls
[9] = dose corresponding to 20 mg/kg meclofenamic acid
[10] = Ib 12.7 mg/kg, sodium meclofenamate 11.0 mg/kg
[11] = Ib 25.4 mg/kg, sodium meclofenamate 22.0 mg/kg
[12] = dose corresponding to 10 mg/kg meclofenamic acid (Ib 12.7 mg/kg; sodium meclofenamate 11.0 mg/kg), **P < 0.01 vs controls
[13] = dose corresponding to 20 mg/kg meclofenamic acid (Ib 25.4 mg/kg; sodium meclofenamate 22.0 mg/kg), **P < 0.01 vs controls
[14] = Ib 25.4 mg/kg, sodium meclofenamate 22 mg/kg
[15] = Ib 31.75 mg/kg × 2 (**P < 0.01), sodium meclofenamate 27.5 mg/kg × 2 (*P < 0.05 vs controls), 24 h
[16] = Ib 31.75 mg/kg × 2, sodium meclofenamate 27.5 mg/kg × 2, 4 h, vs controls
[17] = Ib 31.75 mg/kg × 2, sodium meclofenamate 27.5 mg/kg × 2, 24 h, vs controls

## Cc1ccc(Cl)c(Nc2ccccc2C(=O)O)c1Cl [Sodium meclofenamate, sodium meclofenamate, reference compound]
pH of aqueous solution
  pH of aqueous solution (in words): markedly alkaline pH
Arachidonic acid oedema; [5]
  change of Increase of Original Volume (in parentheses), 60 min: -6
Arachidonic acid oedema; Ib 38.1 mg/kg, sodium meclofenamate 33 mg/kg
  change of Increase of Original Volume (in parentheses), 60 min: -29
Arachidonic acid oedema; dose corresponding to 10 mg/kg meclofenamic acid (Ib 12.7 mg/kg; sodium meclofenamate 11 mg/kg)
  Increase of Original Volume (m ± s.e.), 60 min: 0.58 ± 0.05
Arachidonic acid oedema; dose corresponding to 30 mg/kg meclofenamic acid (Ib 38.1 mg/kg, **P < 0.01; sodium meclofenamate 33 mg/kg, *P < 0.05 vs controls)
  Increase of Original Volume (m ± s.e.), 60 min: 0.44 ± 0.06
Arachidonic acid oedema; rat, oedema reduced in statistically significant manner
  statistically significant dose as fraction of the LD50: 1/4
Carrageenin oedema; [6]
  Increase of original volume (m ± s.e.), 1 h: 0.41 ± 0.05 mL
  Increase of original volume (m ± s.e.), 2 h: 0.87 ± 0.10 mL
  Increase of original volume (m ± s.e.), 3 h: 1.42 ± 0.10 mL
  Increase of original volume (m ± s.e.), 4 h: 1.12 ± 0.07 mL
  Increase of original volume (m ± s.e.), 5 h: 1.39 ± 0.08 mL
Carrageenin oedema; [7]
  % change of increase of original volume, 1 h: -13%
  % change of increase of original volume, 2 h: -8%
  % change of increase of original volume, 3 h: -7%
  % change of increase of original volume, 4 h: -6%
  % change of increase of original volume, 5 h: -10%
Carrageenin oedema; dose corresponding to 20 mg/kg meclofenamic acid (Ib 25,4 mg/kg; sodium meclofenamate 22,0 mg/kg)
  Increase of original volume (m ± s.e.), 1 h: 0.36 ± 0.05 mL
Carrageenin oedema; dose corresponding to 20 mg/kg meclofenamic acid (Ib 25,4 mg/kg; sodium meclofenamate 22,0 mg/kg), *P < 0.05
  Increase of original volume (m ± s.e.), 2 h: 0.65 ± 0.05 mL
Carrageenin oedema; [8]
  Increase of original volume (m ± s.e.), 3 h: 0.77 ± 0.07 mL
  Increase of original volume (m ± s.e.), 4 h: 1.07 ± 0.09 mL
  Increase of original volume (m ± s.e.), 5 h: 1.24 ± 0.07 mL
Carrageenin oedema; [9]
  % change of increase of original volume, 1 h: -20%
  % change of increase of original volume, 2 h: -32%
  % change of increase of original volume, 3 h: -43%
  % change of increase of original volume, 4 h: -33%
  % change of increase of original volume, 5 h: -25%
Carrageenin oedema; vs sodium meclofenamate
  anti-inflammatory activity compared with reference (in words): behaved in similar manner
Carrageenin oedema; read-out: dose at which antagonism of the oedema is statistically significant
  minimal effective dose: 68 µmol/kg
[1]; male and female rats, 20 days of observation, probit method, read-out: DL50
  LD50 at 480 h: 127 mg/kg
[1]; mg/kg meclofenamic acid, read-out: LD50 as corresponding meclofenamic acid
  LD50 at 480 h: 119 mg/kg
rat
  Slope: 7.402 ± 2.014
[2]; [10]
  % Protection, 0-10 minutes: 52%
  % Protection, 10-20 minutes: 20%
  % Protection, 20-30 minutes: 40%
  % Protection, total: 43%
[2]; [11]
  % Protection, 0-10 minutes: 60%
  % Protection, 10-20 minutes: 33%
  % Protection, 20-30 minutes: 46%
  % Protection, total: 53%
[2]; [6]
  Writhing (m ± s.e.) during 10-20 minutes: 16.5 ± 1.0
  Writhing (m ± s.e.) during 20-30 minutes: 8.6 ± 0.4
[2]; [12]
  Writhing (m ± s.e.) during 0-10 minutes: 12.0 ± 1.6
  Writhing (m ± s.e.), total minutes: 34.2 ± 1.5
[2]; dose corresponding to 20 mg/kg meclofenamic acid (Ib 25.4 mg/kg; sodium meclofenamate 22.0 mg/kg)
  Writhing (m ± s.e.) during 10-20 minutes: 13.7 ± 1.5
[2]; [13]
  Writhing (m ± s.e.) during 0-10 minutes: 10.0 ± 1.1
  Writhing (m ± s.e.) during 20-30 minutes: 7.7 ± 0.8
  Writhing (m ± s.e.), total minutes: 28.0 ± 2.9
[3]; mouse
  activity in the hot plate test (in words): inactive
[3]; [5]
  Percentages of mice protected at 30 minutes: 0%
  Percentages of mice protected at 60 minutes: 0%
[3]; [14]
  Percentages of mice protected at 30 minutes: 0%
  Percentages of mice protected at 60 minutes: 0%
[4]; [15]
  Leucocytes (m ± s.e.), 24 h: 40.14 ± 11.99 × 10^6
  Volume of exudate (m ± s.e.), 24 h: 0.52 ± 0.12 mL
[4]; Ib 31.75 mg/kg × 2 (*P < 0.05 vs controls), sodium meclofenamate 27.5 mg/kg × 2, 4 h
  Leucocytes (m ± s.e.), 4 h: 4.36 ± 1.76 × 10^6
[4]; [16]
  change of leucocytes (in parentheses), 4 h: -2
  change of volume of exudate (in parentheses), 4 h: -6
[4]; [17]
  change of leucocytes (in parentheses), 24 h: -52
  change of volume of exudate (in parentheses), 24 h: -42
[4]; dose corresponding to 25 mg/kg meclofenamic acid × 2 (Ib 31.75; sodium meclofenamate 27.5 mg/kg), 4 h
  Volume of exudate (m ± s.e.), 4 h: 0.30 ± 0.05 mL

Reference: patent US4879311A, “Derivatives of benzoyloxyacetic acid, and preparation and formulations thereof for therapeutic use” (Inverni della Beffa S.p.A., priority 1987, dated 1989)
